Source: ChEMBL document CHEMBL4507316 (2021)

Assays:
[1] = tested on: Hepatocyte growth factor receptor (Homo sapiens), P08581 [Y1230D]; experiment: MET Y1230D ProQinase selectivity panel; details: Compound concentration 1.0 uM
[2] = biological target: Serine/threonine-protein kinase 17A (Homo sapiens) (UniProt Q9UEE5); experiment: STK17A ProQinase selectivity panel; details: Compound concentration 1.0 uM
[3] = biological target: Mast/stem cell growth factor receptor Kit (Homo sapiens) (UniProt P10721); experiment: KIT wt ProQinase selectivity panel; details: Compound concentration 1.0 uM
Sequence of Mast/stem cell growth factor receptor Kit (Homo sapiens) (P10721 whole entry): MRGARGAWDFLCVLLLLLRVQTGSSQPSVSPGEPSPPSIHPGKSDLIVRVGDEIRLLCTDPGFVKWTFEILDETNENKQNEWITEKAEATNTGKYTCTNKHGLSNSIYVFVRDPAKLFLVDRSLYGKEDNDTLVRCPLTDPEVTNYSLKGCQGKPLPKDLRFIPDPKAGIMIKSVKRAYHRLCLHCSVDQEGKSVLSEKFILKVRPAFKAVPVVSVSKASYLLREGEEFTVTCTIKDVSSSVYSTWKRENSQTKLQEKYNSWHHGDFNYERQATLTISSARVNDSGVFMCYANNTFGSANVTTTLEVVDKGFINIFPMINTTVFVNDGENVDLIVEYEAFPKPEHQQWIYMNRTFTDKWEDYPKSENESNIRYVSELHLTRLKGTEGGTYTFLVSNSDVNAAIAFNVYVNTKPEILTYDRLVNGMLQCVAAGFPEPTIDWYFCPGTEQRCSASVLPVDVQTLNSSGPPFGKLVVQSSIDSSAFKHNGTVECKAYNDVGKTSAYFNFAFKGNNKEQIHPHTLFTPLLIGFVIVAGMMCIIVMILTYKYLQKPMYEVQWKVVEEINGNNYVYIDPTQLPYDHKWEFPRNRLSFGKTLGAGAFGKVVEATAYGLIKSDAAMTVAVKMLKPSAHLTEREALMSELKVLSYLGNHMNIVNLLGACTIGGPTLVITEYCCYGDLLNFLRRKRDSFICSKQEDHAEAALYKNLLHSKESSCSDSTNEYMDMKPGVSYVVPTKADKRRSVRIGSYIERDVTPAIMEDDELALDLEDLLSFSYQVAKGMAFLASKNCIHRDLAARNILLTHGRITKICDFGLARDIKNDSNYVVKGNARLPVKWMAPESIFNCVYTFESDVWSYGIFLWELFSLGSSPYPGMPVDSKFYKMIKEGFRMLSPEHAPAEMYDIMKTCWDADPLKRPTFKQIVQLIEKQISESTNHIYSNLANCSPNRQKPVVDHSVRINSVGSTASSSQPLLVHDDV

[4] = biological target: Mitogen-activated protein kinase 3 (Homo sapiens) (UniProt P27361); experiment: ERK1 ProQinase selectivity panel; details: Compound concentration 1.0 uM
[5] = biological target: Cyclin-dependent kinase 2/cyclin E (Homo sapiens) (UniProt P24864+P24941+O96020); experiment: CDK2/CycE ProQinase selectivity panel; assay type: protein-complex assay; details: Compound concentration 1.0 uM
[6] = biological target: Dual serine/threonine and tyrosine protein kinase (Homo sapiens) (UniProt Q6XUX3); experiment: RIPK5 ProQinase selectivity panel; details: Compound concentration 1.0 uM
[7] = biological target: Serine/threonine-protein kinase WNK3 (Homo sapiens) (UniProt Q9BYP7); experiment: WNK3 ProQinase selectivity panel; details: Compound concentration 1.0 uM
[8] = tested on: Tyrosine-protein kinase ABL1 (Homo sapiens), P00519 [H396P]; experiment: ABL1 H396P ProQinase selectivity panel; details: Compound concentration 1.0 uM
[9] = biological target: Inhibitor of nuclear factor kappa-B kinase subunit epsilon (Homo sapiens) (UniProt Q14164); experiment: IKK-epsilon ProQinase selectivity panel; details: Compound concentration 1.0 uM
[10] = biological target: Macrophage colony-stimulating factor 1 receptor (Homo sapiens) (UniProt P07333); experiment: CSF1-R ProQinase selectivity panel; details: Compound concentration 1.0 uM
[11] = tested on: Epidermal growth factor receptor (Homo sapiens), P00533 [T790M]; experiment: EGF-R T790M ProQinase selectivity panel; details: Compound concentration 1.0 uM
[12] = biological target: Fibroblast growth factor receptor 3 (Homo sapiens) (UniProt P22607); experiment: FGF-R3 wt ProQinase selectivity panel; details: Compound concentration 1.0 uM
[13] = tested on: Tyrosine-protein kinase ABL1 (Homo sapiens), P00519 [F317I]; experiment: ABL1 F317I ProQinase selectivity panel; details: Compound concentration 1.0 uM
[14] = biological target: 5-hydroxytryptamine receptor 2A (Homo sapiens, UniProt P28223); details: Compound concentration 10.0 uM
Sequence of 5-hydroxytryptamine receptor 2A (P28223 whole entry): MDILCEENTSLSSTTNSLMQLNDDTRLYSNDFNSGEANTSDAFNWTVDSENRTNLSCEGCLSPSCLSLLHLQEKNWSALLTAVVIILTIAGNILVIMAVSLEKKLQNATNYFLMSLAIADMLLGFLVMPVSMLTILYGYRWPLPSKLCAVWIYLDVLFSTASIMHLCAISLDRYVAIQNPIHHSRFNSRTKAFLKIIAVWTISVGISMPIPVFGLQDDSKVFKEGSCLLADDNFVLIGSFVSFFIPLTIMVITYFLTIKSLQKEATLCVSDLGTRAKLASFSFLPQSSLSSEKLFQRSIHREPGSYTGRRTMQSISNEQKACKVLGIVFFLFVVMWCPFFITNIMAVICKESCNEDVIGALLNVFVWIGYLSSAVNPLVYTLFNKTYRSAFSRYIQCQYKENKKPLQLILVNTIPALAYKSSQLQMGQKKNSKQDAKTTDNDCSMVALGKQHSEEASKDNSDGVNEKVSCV

[15] = biological target: Serine/threonine-protein kinase pim-3 (Homo sapiens) (UniProt Q86V86); experiment: PIM3 ProQinase selectivity panel; details: Compound concentration 1.0 uM
[16] = biological target: Serine/threonine-protein kinase Nek3 (Homo sapiens) (UniProt P51956); experiment: NEK3 ProQinase selectivity panel; details: Compound concentration 1.0 uM
[17] = biological target: Serine/threonine-protein kinase PAK 3 (Homo sapiens) (UniProt O75914); experiment: PAK3 ProQinase selectivity panel; details: Compound concentration 1.0 uM
[18] = biological target: Serine/threonine-protein kinase Nek4 (Homo sapiens) (UniProt P51957); experiment: NEK4 ProQinase selectivity panel; details: Compound concentration 1.0 uM
[19] = biological target: D(3) dopamine receptor (Homo sapiens) (UniProt P35462); details: Compound concentration 10.0 uM
[20] = biological target: Interferon-induced, double-stranded RNA-activated protein kinase (Homo sapiens) (UniProt P19525); experiment: EIF2AK2 ProQinase selectivity panel; details: Compound concentration 1.0 uM
[21] = biological target: Wee1-like protein kinase (Homo sapiens) (UniProt P30291); experiment: WEE1 ProQinase selectivity panel; details: Compound concentration 1.0 uM
[22] = tested on: Leucine-rich repeat serine/threonine-protein kinase 2 (Homo sapiens), Q5S007 [R1441C]; experiment: LRRK2 R1441C ProQinase selectivity panel; details: Compound concentration 1.0 uM
[23] = tested on: Leucine-rich repeat serine/threonine-protein kinase 2 (Homo sapiens), Q5S007 [I2020T]; experiment: LRRK2 I2020T ProQinase selectivity panel; details: Compound concentration 1.0 uM
[24] = biological target: cAMP-dependent protein kinase catalytic subunit alpha (Homo sapiens) (UniProt P17612); experiment: PKA ProQinase selectivity panel; details: Compound concentration 1.0 uM
[25] = biological target: Discoidin domain-containing receptor 2 (Homo sapiens) (UniProt Q16832); experiment: DDR2 ProQinase selectivity panel; details: Compound concentration 1.0 uM
[26] = biological target: Platelet-derived growth factor receptor beta (Homo sapiens) (UniProt P09619); experiment: PDGFR-beta ProQinase selectivity panel; details: Compound concentration 1.0 uM
[27] = biological target: Serine/threonine-protein kinase PLK2 (Homo sapiens) (UniProt Q9NYY3); experiment: SNK ProQinase selectivity panel; details: Compound concentration 1.0 uM
[28] = biological target: MAP kinase-activated protein kinase 3 (Homo sapiens) (UniProt Q16644); experiment: MAPKAPK3 ProQinase selectivity panel; details: Compound concentration 1.0 uM
Sequence of MAP kinase-activated protein kinase 3 (Homo sapiens) (Q16644 whole entry, looked up): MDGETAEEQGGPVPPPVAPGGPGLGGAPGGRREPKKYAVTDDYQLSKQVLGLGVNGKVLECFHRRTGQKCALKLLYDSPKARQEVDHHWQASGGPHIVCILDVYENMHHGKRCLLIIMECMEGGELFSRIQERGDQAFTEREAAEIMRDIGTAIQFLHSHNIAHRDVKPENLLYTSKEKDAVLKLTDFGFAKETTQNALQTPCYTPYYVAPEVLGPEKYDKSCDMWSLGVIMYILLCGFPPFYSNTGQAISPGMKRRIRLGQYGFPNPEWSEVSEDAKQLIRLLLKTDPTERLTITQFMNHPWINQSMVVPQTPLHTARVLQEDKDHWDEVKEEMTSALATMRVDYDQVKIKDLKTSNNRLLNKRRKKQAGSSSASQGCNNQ

[29] = biological target: Serine/threonine-protein kinase VRK1 (Homo sapiens) (UniProt Q99986); experiment: VRK1 ProQinase selectivity panel; details: Compound concentration 1.0 uM
Sequence of Serine/threonine-protein kinase VRK1 (Homo sapiens) (Q99986 whole entry): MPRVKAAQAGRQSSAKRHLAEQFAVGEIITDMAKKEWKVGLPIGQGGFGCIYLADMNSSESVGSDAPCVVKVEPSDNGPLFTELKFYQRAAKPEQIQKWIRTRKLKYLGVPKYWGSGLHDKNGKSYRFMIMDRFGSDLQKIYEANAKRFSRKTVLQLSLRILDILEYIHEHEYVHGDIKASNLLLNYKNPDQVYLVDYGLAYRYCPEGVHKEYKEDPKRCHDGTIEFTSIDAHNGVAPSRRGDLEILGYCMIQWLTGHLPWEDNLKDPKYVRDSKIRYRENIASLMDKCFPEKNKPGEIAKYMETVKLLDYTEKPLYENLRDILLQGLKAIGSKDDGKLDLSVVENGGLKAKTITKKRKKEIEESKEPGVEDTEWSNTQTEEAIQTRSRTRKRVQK

[30] = biological target: 5'-AMP-activated protein kinase catalytic subunit alpha-1 (Homo sapiens) (UniProt Q13131); experiment: AMPK-alpha1 ProQinase selectivity panel; details: Compound concentration 1.0 uM
[31] = tested on: Tyrosine-protein kinase ABL1 (Homo sapiens), P00519 [Y253F]; experiment: ABL1 Y253F ProQinase selectivity panel; details: Compound concentration 1.0 uM
[32] = biological target: Cyclin-dependent kinase 9 (Homo sapiens) (UniProt P50750); experiment: CDK9/CycT ProQinase selectivity panel; details: Compound concentration 1.0 uM
[33] = biological target: Tyrosine-protein kinase TXK (Homo sapiens) (UniProt P42681); experiment: TXK ProQinase selectivity panel; details: Compound concentration 1.0 uM
[34] = biological target: Protein kinase C alpha type (Homo sapiens) (UniProt P17252); experiment: PKC-alpha ProQinase selectivity panel; details: Compound concentration 1.0 uM
[35] = biological target: Alpha-1B adrenergic receptor (Homo sapiens) (UniProt P35368); details: Compound concentration 10.0 uM
Sequence of Alpha-1B adrenergic receptor (Homo sapiens) (P35368 whole entry): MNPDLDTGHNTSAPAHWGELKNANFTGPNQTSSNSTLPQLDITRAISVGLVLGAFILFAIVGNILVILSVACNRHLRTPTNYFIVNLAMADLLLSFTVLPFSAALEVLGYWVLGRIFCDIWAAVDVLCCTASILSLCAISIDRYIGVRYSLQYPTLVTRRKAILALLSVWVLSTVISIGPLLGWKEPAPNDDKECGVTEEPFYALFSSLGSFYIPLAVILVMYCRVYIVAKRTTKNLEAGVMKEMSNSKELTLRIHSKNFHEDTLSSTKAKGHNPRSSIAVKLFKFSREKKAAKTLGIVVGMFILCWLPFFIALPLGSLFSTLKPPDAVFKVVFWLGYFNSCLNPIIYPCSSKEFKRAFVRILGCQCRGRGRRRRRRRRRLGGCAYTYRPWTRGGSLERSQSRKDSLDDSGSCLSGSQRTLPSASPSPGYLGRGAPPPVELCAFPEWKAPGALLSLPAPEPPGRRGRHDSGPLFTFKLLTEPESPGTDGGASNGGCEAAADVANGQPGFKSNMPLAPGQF

[36] = biological target: Protein kinase C theta type (Homo sapiens) (UniProt Q04759); experiment: PKC-theta ProQinase selectivity panel; details: Compound concentration 1.0 uM
[37] = tested on: Epidermal growth factor receptor (Homo sapiens), P00533 [UNDEFINED MUTATION]; experiment: EGF-R d747-749/A750P ProQinase selectivity panel; details: Compound concentration 1.0 uM
[38] = biological target: Serine/threonine-protein kinase D2 (Homo sapiens) (UniProt Q9BZL6); experiment: PRKD2 ProQinase selectivity panel; details: Compound concentration 1.0 uM
[39] = biological target: Serine/threonine-protein kinase 26 (Homo sapiens) (UniProt Q9P289); experiment: MST4 ProQinase selectivity panel; details: Compound concentration 1.0 uM
[40] = tested on: Hepatocyte growth factor receptor (Homo sapiens), P08581 [D1228H]; experiment: MET D1228H ProQinase selectivity panel; details: Compound concentration 1.0 uM
[41] = biological target: Serine/threonine-protein kinase PAK 6 (Homo sapiens) (UniProt Q9NQU5); experiment: PAK6 ProQinase selectivity panel; details: Compound concentration 1.0 uM
Sequence of Serine/threonine-protein kinase PAK 6 (Homo sapiens) (Q9NQU5 whole entry, looked up): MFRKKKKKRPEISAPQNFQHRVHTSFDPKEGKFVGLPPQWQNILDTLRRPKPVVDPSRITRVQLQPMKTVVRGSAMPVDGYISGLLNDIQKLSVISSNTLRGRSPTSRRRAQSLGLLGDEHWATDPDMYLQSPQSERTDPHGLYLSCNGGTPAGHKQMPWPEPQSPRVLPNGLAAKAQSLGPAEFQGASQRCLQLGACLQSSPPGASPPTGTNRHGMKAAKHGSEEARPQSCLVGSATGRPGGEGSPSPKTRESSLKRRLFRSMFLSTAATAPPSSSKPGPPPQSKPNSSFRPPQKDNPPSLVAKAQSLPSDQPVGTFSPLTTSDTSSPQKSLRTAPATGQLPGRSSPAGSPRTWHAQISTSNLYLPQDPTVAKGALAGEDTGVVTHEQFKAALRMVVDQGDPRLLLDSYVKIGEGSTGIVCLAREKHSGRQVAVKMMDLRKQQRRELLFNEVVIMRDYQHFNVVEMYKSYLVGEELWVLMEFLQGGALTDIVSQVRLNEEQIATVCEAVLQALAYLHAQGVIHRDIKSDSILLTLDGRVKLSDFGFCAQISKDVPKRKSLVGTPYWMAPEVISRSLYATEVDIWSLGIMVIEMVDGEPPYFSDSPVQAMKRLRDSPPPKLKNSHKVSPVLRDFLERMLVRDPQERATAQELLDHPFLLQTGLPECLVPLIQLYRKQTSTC

[42] = tested on: RAF proto-oncogene serine/threonine-protein kinase (Homo sapiens), P04049 [Y340D,Y341D]; experiment: RAF1 Y340D/Y341D ProQinase selectivity panel; details: Compound concentration 1.0 uM
[43] = tested on: Hepatocyte growth factor receptor (Homo sapiens), P08581 [F1200I]; experiment: MET F1200I ProQinase selectivity panel; details: Compound concentration 1.0 uM
[44] = biological target: ALK tyrosine kinase receptor (Homo sapiens) (UniProt Q9UM73); experiment: ALK ProQinase selectivity panel; details: Compound concentration 1.0 uM
Sequence of ALK tyrosine kinase receptor (Homo sapiens) (Q9UM73 19-1620 limits assumed): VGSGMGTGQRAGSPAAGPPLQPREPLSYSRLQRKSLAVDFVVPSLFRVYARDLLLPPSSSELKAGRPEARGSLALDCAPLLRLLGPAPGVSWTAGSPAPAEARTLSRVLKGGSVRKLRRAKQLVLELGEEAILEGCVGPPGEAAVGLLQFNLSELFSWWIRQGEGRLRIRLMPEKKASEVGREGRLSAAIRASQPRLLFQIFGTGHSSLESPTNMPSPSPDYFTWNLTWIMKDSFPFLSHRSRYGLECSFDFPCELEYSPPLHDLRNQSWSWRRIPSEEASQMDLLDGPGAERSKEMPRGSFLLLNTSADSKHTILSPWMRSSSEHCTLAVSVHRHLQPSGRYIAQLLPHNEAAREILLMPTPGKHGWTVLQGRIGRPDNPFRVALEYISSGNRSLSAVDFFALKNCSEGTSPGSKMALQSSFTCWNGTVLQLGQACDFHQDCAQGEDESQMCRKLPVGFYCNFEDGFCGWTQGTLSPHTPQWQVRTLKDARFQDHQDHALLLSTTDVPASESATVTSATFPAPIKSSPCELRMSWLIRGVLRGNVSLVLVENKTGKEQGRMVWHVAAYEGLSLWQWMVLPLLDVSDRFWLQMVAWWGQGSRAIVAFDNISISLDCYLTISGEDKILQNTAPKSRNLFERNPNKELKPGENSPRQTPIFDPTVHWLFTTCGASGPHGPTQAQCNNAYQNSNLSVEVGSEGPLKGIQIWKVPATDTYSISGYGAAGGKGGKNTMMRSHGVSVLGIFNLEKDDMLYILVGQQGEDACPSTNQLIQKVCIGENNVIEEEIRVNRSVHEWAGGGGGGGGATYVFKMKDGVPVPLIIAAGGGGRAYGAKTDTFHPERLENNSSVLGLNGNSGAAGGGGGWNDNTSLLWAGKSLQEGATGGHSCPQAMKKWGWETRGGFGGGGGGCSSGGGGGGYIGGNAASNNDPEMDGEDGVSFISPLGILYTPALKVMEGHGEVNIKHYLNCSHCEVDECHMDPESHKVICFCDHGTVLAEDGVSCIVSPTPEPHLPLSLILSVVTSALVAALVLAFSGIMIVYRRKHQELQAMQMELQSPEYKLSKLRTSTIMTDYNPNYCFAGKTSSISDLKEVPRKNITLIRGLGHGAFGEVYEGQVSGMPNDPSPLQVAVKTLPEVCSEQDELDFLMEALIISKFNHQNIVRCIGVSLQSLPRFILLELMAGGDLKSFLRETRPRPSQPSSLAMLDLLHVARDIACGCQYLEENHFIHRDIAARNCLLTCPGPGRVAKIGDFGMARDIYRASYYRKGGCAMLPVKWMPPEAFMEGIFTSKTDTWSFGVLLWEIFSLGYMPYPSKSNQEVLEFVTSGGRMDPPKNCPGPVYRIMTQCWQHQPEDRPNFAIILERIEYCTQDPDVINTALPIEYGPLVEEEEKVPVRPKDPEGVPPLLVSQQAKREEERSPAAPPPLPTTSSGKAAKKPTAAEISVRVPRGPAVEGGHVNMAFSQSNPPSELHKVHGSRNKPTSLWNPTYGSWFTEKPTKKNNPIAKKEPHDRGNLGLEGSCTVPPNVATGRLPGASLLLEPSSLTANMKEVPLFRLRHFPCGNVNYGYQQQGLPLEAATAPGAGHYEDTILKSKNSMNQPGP

[45] = biological target: Leukocyte tyrosine kinase receptor (Homo sapiens) (UniProt P29376); experiment: LTK ProQinase selectivity panel; details: Compound concentration 1.0 uM
[46] = biological target: Tyrosine-protein kinase Fyn (Homo sapiens) (UniProt P06241); experiment: FYN ProQinase selectivity panel; details: Compound concentration 1.0 uM
[47] = biological target: Muscarinic acetylcholine receptor M4 (Homo sapiens) (UniProt P08173); details: Compound concentration 10.0 uM
[48] = tested on: Tyrosine-protein kinase ABL1 (Homo sapiens), P00519 [G250E]; experiment: ABL1 G250E ProQinase selectivity panel; details: Compound concentration 1.0 uM

**Q.** `O=C1c2ccc(Nc3ccc(F)cc3F)cc2CCc2ccc(OC[C@H](O)CO)cc21` [Skepinone-L] was tested. Which % Residual activity with Skepinone-L [1] did it give?
**A.** 95%

**Q.** What about the % Residual activity with Skepinone-L [2] of the same compound?
**A.** 77%

**Q.** What about the % Residual activity with Skepinone-L [3] of the same compound?
**A.** 111%

**Q.** What about the % Residual activity with Skepinone-L [4] of the same compound?
**A.** 99%

**Q.** What about the % Residual activity with Skepinone-L [5] of the same compound?
**A.** 85%

**Q.** What about the % Residual activity with Skepinone-L [6] of the same compound?
**A.** 95%

**Q.** And the % Residual activity with Skepinone-L [7]?
**A.** 100%

**Q.** What about the % Residual activity with Skepinone-L [8] of the same compound?
**A.** 99%

**Q.** And the % Residual activity with Skepinone-L [9]?
**A.** 103%

**Q.** And the % Residual activity with Skepinone-L [10]?
**A.** 106%

**Q.** And the % Residual activity with Skepinone-L [11]?
**A.** 119%

**Q.** And the % Residual activity with Skepinone-L [12]?
**A.** 102%

**Q.** And the % Residual activity with Skepinone-L [13]?
**A.** 102%

**Q.** What about the inhibition [14] of the same compound?
**A.** 73.1%

**Q.** What about the % Residual activity with Skepinone-L [15] of the same compound?
**A.** 78%

**Q.** And the % Residual activity with Skepinone-L [16]?
**A.** 85%

**Q.** What about the % Residual activity with Skepinone-L [17] of the same compound?
**A.** 107%

**Q.** And the % Residual activity with Skepinone-L [18]?
**A.** 99%

**Q.** What about the inhibition [19] of the same compound?
**A.** -7.71%

**Q.** And the % Residual activity with Skepinone-L [20]?
**A.** 86%

**Q.** And the % Residual activity with Skepinone-L [21]?
**A.** 88%

**Q.** What about the % Residual activity with Skepinone-L [22] of the same compound?
**A.** 89%

**Q.** What about the % Residual activity with Skepinone-L [23] of the same compound?
**A.** 94%

**Q.** What about the % Residual activity with Skepinone-L [24] of the same compound?
**A.** 94%

**Q.** What about the % Residual activity with Skepinone-L [25] of the same compound?
**A.** 102%

**Q.** What about the % Residual activity with Skepinone-L [26] of the same compound?
**A.** 96%

**Q.** And the % Residual activity with Skepinone-L [27]?
**A.** 103%

**Q.** And the % Residual activity with Skepinone-L [28]?
**A.** 95%

**Q.** What about the % Residual activity with Skepinone-L [29] of the same compound?
**A.** 88%

**Q.** What about the % Residual activity with Skepinone-L [30] of the same compound?
**A.** 84%

**Q.** And the % Residual activity with Skepinone-L [31]?
**A.** 88%

**Q.** What about the % Residual activity with Skepinone-L [32] of the same compound?
**A.** 103%

**Q.** What about the % Residual activity with Skepinone-L [33] of the same compound?
**A.** 93%

**Q.** And the % Residual activity with Skepinone-L [34]?
**A.** 96%

**Q.** And the inhibition [35]?
**A.** 5.52%

**Q.** What about the % Residual activity with Skepinone-L [36] of the same compound?
**A.** 99%

**Q.** And the % Residual activity with Skepinone-L [37]?
**A.** 96%

**Q.** And the % Residual activity with Skepinone-L [38]?
**A.** 85%

**Q.** What about the % Residual activity with Skepinone-L [39] of the same compound?
**A.** 106%

**Q.** And the % Residual activity with Skepinone-L [40]?
**A.** 97%

**Q.** And the % Residual activity with Skepinone-L [41]?
**A.** 101%

**Q.** And the % Residual activity with Skepinone-L [42]?
**A.** 91%

**Q.** And the % Residual activity with Skepinone-L [43]?
**A.** 96%

**Q.** What about the % Residual activity with Skepinone-L [44] of the same compound?
**A.** 104%

**Q.** And the % Residual activity with Skepinone-L [45]?
**A.** 97%

**Q.** What about the % Residual activity with Skepinone-L [46] of the same compound?
**A.** 124%

**Q.** What about the inhibition [47] of the same compound?
**A.** -3.22%

**Q.** What about the % Residual activity with Skepinone-L [48] of the same compound?
**A.** 97%
